Patent US4068074A, “Cephalosporin derivatives having at the 3-position of the cephem ring a heterocyclic thiomethyl group with a carboxy or sulfo group and at the 7-position of the cephem ring an α-heterocylic acylaminophenyl-acetamide group” (priority 1974, dated 1978)
≈ marks a conversion by molar mass, not a printed value. Where two headings read alike, the source gives them in different places.

Legend:
Type in all cases: cell-based
[1] = tested on: Staphylococcus Shimanishi; assay: MIC against bacteria (Table I), strain (17)
Source text: (§1) Now, for illustrating the excellent pharmacological effects of the compounds of this invention, the values of MIC (γ/ml.) of the compounds against various bacteria are shown in Table 1, in which the compounds of this invention used are shown by example numbers.
(17) Staphylococcus Shimanishi

Proteus vulgaris OXK US = assay: MIC against bacteria (Table I), strain (1); conditions: (1) Proteus vulgaris OXK US; read-out: MIC
Source text: as §1
(1) Proteus vulgaris OXK US

[2] = tested on: Proteus mirabilis IXM OM-19; assay: MIC against bacteria (Table I), strain (3); conditions: IXMOM19
Source text: as §1
(3) Proteus mirabilis IXM OM-19

Salmonella typhi H901 W = assay: MIC against bacteria (Table I), strain (9); conditions: Salmonella enterica, TYPHI
Source text: as §1
(9) Salmonella typhi H901 W

Salmonella enteritidis = assay: MIC against bacteria (Table I), strain (10); conditions: Salmonella enterica
Source text: as §1
(10) Salmonella enteritidis

Shigella sonnei II 37148 = assay: MIC against bacteria (Table I), strain (12); conditions: II37148
Source text: as §1

Proteus vulgaris 0X 19US = assay: MIC against bacteria (Table I), strain (2); conditions: 0X19US
Source text: as §1
(2) Proteus vulgaris 0X 19US

[3] = tested on: Escherichia coli kauffmann 0-1; assay: MIC against bacteria (Table I), strain (7); conditions: Escherichia coli
Source text: as §1
(7) Escherichia coli kauffmann 0-1

[4] = tested on: Klebsiella pneumoniae ATCC 10031; assay: MIC against bacteria (Table I), strain (8); conditions: ATCC10031
Source text: as §1
(8) Klebsiella pneumoniae ATCC 10031

[5] = tested on: Pseudomonas aeruginosa 99 (Gentamycin resistant); assay: MIC against bacteria (Table I), strain (5)
Source text: as §1
(5) Pseudomonas aeruginosa 99 (Gentamycin resistant)

[6] = tested on: Bacillus megatherium 10778; assay: MIC against bacteria (Table I), strain (13)
Source text: as §1

[7] = tested on: Psuedomonas ovalis IMA 1002; assay: MIC against bacteria (Table I), strain (6); conditions: (6) Psuedomonas ovalis IMA 1002; read-out: MIC
Source text: as §1
(6) Psuedomonas ovalis IMA 1002

[8] = tested on: Staphylococcus aureus 209P; assay: MIC against bacteria (Table I), strain (16); conditions: Staphylococcus aureus, 209P
Source text: as §1
(16) Staphylococcus aureus 209P

[9] = tested on: Bacillus subtilis ATCC 6633; assay: MIC against bacteria (Table I), strain (14); conditions: ATCC6633
Source text: as §1
(14) Bacillus subtilis ATCC 6633

[10] = tested on: Pseudomonas aeruginosa ATCC 8689; assay: MIC against bacteria (Table I), strain (4); conditions: ATCC8689; (4) Pseudomonas aeruginosa ATCC 8689; read-out: MIC
Source text: as §1
(4) Pseudomonas aeruginosa ATCC 8689

Staphylococcus Onuma = assay: MIC against bacteria (Table I), strain (18); conditions: (18) Staphylococcus Onuma; read-out: MIC
Source text: as §1
(18) Staphylococcus Onuma

[11] = tested on: Shigella flexneri 2a 1675; assay: MIC against bacteria (Table I), strain (11); conditions: 2A1675
Source text: as §1

[12] = tested on: Micrococcus flavus ATCC 10240; assay: MIC against bacteria (Table I), strain (15); conditions: ATCC10240
Source text: as §1
(15) Micrococcus flavus ATCC 10240

[13] = (17) Staphylococcus Shimanishi, read-out: MIC
[14] = (3) Proteus mirabilis IXM OM-19, read-out: MIC
[15] = (10) Salmonella enteritidis, read-out: MIC
[16] = (12) Shigella sonnei II 37148, read-out: MIC
[17] = (2) Proteus vulgaris 0X 19US, read-out: MIC
[18] = (8) Klebsiella pneumoniae ATCC 10031, read-out: MIC
[19] = (5) Pseudomonas aeruginosa 99 (Gentamycin resistant), read-out: MIC
[20] = (13) Bacillus megatherium 10778, read-out: MIC
[21] = (14) Bacillus subtilis ATCC 6633, read-out: MIC
[22] = (11) Shigella flexneri 2a 1675, read-out: MIC

Row | SMILES | MIC [1, 13] [µg/mL] | MIC (Proteus vulgaris OXK US) [µg/mL] | MIC [2, 14] [µg/mL] | MIC (Salmonella typhi H901 W) [µg/mL] | MIC (Salmonella enteritidis; [15]) [µg/mL] | MIC (Shigella sonnei II 37148; [16]) [µg/mL] | MIC (Proteus vulgaris 0X 19US; [17]) [µg/mL] | MIC [3] [µg/mL] | MIC [4, 18] [µg/mL] | MIC [5, 19] [µg/mL] | MIC [6, 20] [µg/mL] | MIC [7] [µg/mL] | MIC [8] [µg/mL] | MIC [9, 21] [µg/mL] | MIC [10] [µg/mL] | MIC (Staphylococcus Onuma) [µg/mL] | MIC [11, 22] [µg/mL] | MIC ([1]; Staphylococcus) [µg/mL] | MIC ([12]; Micrococcus flavus) [µg/mL] | MIC (Proteus vulgaris 0X 19US; Proteus vulgaris) [µg/mL] | also measured
1 | Cc1cc(O)c(C(=O)N[C@@H](C(=O)N[C@@H]2C(=O)N3C(C(=O)O)=C(CSc4nnc(SCC(=O)O)s4)CS[C@H]23)c2ccccc2)cn1 [Example 29, 7-[D-α-(4-hydroxy-6-methylnicotinoylamido)-α-phenylacetamido]-3-(5-carboxymethylthio-1,3,4,-thiadiazol-2-yl)thiomethyl-Δ^3-cephem-4-carboxylic acid] | 6.25 (≈ 9.07 µM) | < 0.09 | 0.78 (≈ 1.13 µM) | 1.56 (≈ 2.26 µM) | 0.78 (≈ 1.13 µM) | 3.13 (≈ 4.54 µM) | 12.5 (≈ 18.1 µM) | 3.13 (≈ 4.54 µM) | 6.25 (≈ 9.07 µM) | 6.25 (≈ 9.07 µM) | 0.78 (≈ 1.13 µM) | 12.5 (≈ 18.1 µM) | 1.56 (≈ 2.26 µM) | 0.78 (≈ 1.13 µM) | 12.5 (≈ 18.1 µM) | 12.5 (≈ 18.1 µM) | 0.78 (≈ 1.13 µM) |  |  |  | MIC ([12]; (15) Micrococcus flavus ATCC 10240, read-out: MIC): 6.25 µg/mL (≈ 9.07 µM)
2 | Nn1c(SCC(=O)O)nnc1SCC1=C(C(=O)O)N2C(=O)[C@@H](NC(=O)[C@H](NC(=O)c3cnccc3O)c3ccccc3)[C@H]2SC1 [Example 30, 7-[D-α-(4-hydroxynicotinoylamido)-α-phenylacetamido]-3-(1-amino-5-carboxymethylthio-1,3,4-triazol-2-yl)thiomethyl-Δ^3-cephem-4-carboxylic acid] |  | < 0.09 | 0.78 (≈ 1.16 µM) | 6.25 (≈ 9.29 µM) | 1.56 (≈ 2.32 µM) | 12.5 (≈ 18.6 µM) | 0.78 (≈ 1.16 µM) | 6.25 (≈ 9.29 µM) |  |  | 0.78 (≈ 1.16 µM) | 25 (≈ 37.2 µM) | 1.56 (≈ 2.32 µM) | 0.78 (≈ 1.16 µM) | 25 (≈ 37.2 µM) | 25 (≈ 37.2 µM) | 6.25 (≈ 9.29 µM) | 12.5 (≈ 18.6 µM) | 12.5 (≈ 18.6 µM) |  | MIC ([4]; Klebsiella pneumoniae): 12.5 µg/mL (≈ 18.6 µM); MIC ([5]; Pseudomonas aeruginosa): 12.5 µg/mL (≈ 18.6 µM)
3 | O=C(O)Cc1nnc(SCC2=C(C(=O)O)N3C(=O)[C@@H](NC(=O)[C@H](NC(=O)c4csccc4=O)c4ccc(O)cc4)[C@H]3SC2)s1 [Example 32, 7-[D-α-(4-thiopyrone-3-carboxamido)-α-p-hydroxyphenylacetamido]-3-[5-carboxymethyl-1,3,4-thiadiazol-2-yl]thiomethyl-Δ^3-cephem-4-carboxylic acid] |  | < 0.09 |  | 1.56 (≈ 2.31 µM) |  | 3.13 (≈ 4.63 µM) |  | 3.13 (≈ 4.63 µM) | 6.25 (≈ 9.25 µM) | 25 (≈ 37 µM) |  | 50 (≈ 74 µM) | 1.56 (≈ 2.31 µM) |  | 50 (≈ 74 µM) | 6.25 (≈ 9.25 µM) | 0.78 (≈ 1.15 µM) | 3.13 (≈ 4.63 µM) | 3.13 (≈ 4.63 µM) | 3.13 (≈ 4.63 µM) | MIC ([2]; Proteus mirabilis): 0.78 µg/mL (≈ 1.15 µM); MIC (Salmonella enteritidis; ENTERITIDIS): 1.56 µg/mL (≈ 2.31 µM); MIC ([6]; Bacillus, 10778): 0.78 µg/mL (≈ 1.15 µM); MIC ([9]; Bacillus subtilis): 0.78 µg/mL (≈ 1.15 µM)
4 | O=C(O)CSc1nnc(SCC2=C(C(=O)O)N3C(=O)[C@@H](NC(=O)[C@H](NC(=O)c4cnccc4O)c4ccc(O)cc4)[C@H]3SC2)s1 [Example 33, 7-[D-α-(4-hydroxynicotinoylamido)-α-p-hydroxyphenylacetamido]-3-[5-carboxymethylthio-1,3,4-Δ^3-thiadiazol-2-yl]thiomethyl-cephem-4-carboxylic acid] | 12.5 (≈ 18.1 µM) | < 0.09 | 0.39 (≈ 0.565 µM) | 3.13 (≈ 4.53 µM) | 1.56 (≈ 2.26 µM) |  |  | 3.13 (≈ 4.53 µM) | 25 (≈ 36.2 µM) | 25 (≈ 36.2 µM) | 0.78 (≈ 1.13 µM) | 12.5 (≈ 18.1 µM) | 3.13 (≈ 4.53 µM) | 0.78 (≈ 1.13 µM) | 25 (≈ 36.2 µM) | 25 (≈ 36.2 µM) |  |  | 3.13 (≈ 4.53 µM) | 12.5 (≈ 18.1 µM) | MIC (Shigella sonnei II 37148; Shigella sonnei): 3.13 µg/mL (≈ 4.53 µM); MIC ([11]; Shigella flexneri): 3.13 µg/mL (≈ 4.53 µM)
